Earlier results on 14 compounds are cited in patent publication US20200237789A1, “COMBINATION THERAPY FOR PREVENTING ADDICTION” (Amygdala Neurosciences, Inc., priority 2017, published 2020).

What is called IC50 is the point on the concentration scale where inhibition reaches its midpoint.

The target in one data set is T1, hMAO-A (Homo sapiens, UniProt P21397).
T1 sequence (P21397 1-527): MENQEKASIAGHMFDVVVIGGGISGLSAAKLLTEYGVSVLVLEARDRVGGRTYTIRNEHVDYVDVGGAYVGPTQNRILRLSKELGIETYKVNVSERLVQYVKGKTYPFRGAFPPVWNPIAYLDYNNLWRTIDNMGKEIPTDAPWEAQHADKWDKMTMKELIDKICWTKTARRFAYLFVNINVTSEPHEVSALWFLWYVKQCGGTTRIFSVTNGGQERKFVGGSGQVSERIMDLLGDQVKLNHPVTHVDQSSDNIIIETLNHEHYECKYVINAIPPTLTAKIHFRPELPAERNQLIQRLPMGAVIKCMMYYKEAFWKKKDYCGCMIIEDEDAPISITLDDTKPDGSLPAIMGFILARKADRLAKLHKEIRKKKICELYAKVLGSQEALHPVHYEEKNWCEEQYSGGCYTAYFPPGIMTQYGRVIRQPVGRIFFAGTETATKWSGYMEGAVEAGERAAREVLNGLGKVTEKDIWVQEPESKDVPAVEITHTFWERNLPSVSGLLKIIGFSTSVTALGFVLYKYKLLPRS
The following applies: read-out: IC50 hMAO-A.

A further data set deals with T2, hMAO-B (Homo sapiens, UniProt P27338).
T2 sequence (P27338 1-520): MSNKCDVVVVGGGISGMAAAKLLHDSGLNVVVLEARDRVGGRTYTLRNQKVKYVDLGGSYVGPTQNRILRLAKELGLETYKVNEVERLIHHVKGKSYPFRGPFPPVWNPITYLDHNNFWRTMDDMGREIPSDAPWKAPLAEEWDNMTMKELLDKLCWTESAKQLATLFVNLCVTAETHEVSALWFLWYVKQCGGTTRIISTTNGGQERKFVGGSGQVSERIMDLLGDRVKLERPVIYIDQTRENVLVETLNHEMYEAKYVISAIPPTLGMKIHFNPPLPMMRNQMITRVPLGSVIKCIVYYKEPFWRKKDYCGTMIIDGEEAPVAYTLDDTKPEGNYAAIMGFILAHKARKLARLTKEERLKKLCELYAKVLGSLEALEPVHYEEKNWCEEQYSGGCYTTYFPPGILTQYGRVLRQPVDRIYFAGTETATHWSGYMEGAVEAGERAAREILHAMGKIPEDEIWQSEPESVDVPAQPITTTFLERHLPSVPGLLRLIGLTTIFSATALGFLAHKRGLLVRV
The note with it: read-out: IC50 hMAO-B.

Another data set addresses T3, human ALDH-2 enzyme (Homo sapiens, UniProt P05091).
T3 sequence (P05091 18-517): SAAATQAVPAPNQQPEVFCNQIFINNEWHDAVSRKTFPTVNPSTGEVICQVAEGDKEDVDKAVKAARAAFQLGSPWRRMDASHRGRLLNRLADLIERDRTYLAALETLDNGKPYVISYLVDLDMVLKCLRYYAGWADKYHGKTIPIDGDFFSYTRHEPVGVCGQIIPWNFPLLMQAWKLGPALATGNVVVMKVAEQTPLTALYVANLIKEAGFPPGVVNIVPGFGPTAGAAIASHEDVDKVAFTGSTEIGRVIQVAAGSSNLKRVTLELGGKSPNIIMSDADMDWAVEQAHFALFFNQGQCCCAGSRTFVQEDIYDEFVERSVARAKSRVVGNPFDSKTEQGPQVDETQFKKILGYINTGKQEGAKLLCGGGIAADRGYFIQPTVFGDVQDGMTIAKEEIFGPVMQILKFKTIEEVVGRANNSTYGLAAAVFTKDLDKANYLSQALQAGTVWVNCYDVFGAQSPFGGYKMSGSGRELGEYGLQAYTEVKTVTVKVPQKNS
The note with it: read-out: IC50 ALDH-2.

In the case of `O=C(NCc1ccc(-c2cc[nH]c(=O)c2)cc1)c1c(Cl)cccc1Cl` [compound (1), 2,6-dichloro-N-[4-(2-oxo-1,2-dihydro-pyridin-4-yl)-benzyl]-benzamide], the IC50 at hMAO-A and on hMAO-B was more than 130 µM each time.
In the case of `O=C(NCc1ccc(-c2cc[nH]c(=O)c2)cc1)c1c(F)ccc(F)c1Cl` [(8), 2-chloro-3,6-difluoro-N-(4-(2-oxo-1,2-dihydropyridin-4-yl)benzyl)benzamide], the IC50 at hMAO-A and on hMAO-B was more than 130 µM throughout.
Turning to `O=C(NCc1ccc(-c2cc[nH]c(=O)c2)cc1F)c1c(Cl)cccc1Cl` [(13), 2,6-dichloro-N-(2-fluoro-4-(2-oxo-1,2-dihydropyridin-4-yl)benzyl)benzamide], the IC50 on hMAO-A and at hMAO-B was more than 130 µM throughout.
Regarding `O=C(NCc1ccc(-c2cc[nH]c(=O)c2)cc1)c1cccc(F)c1Cl` [(4), 2-chloro-3-fluoro-N-(4-(2-oxo-1,2-dihydropyridin-4-yl)benzyl)benzamide], the half-maximal inhibitory concentration (IC50) on hMAO-A and at hMAO-B was more than 130 µM each time.
As for `O=C(NCc1ccc(-c2cc[nH]c(=O)c2)cc1)c1c(F)cccc1F` [(11), 2,6-difluoro-N-(4-(2-oxo-1,2-dihydropyridin-4-yl)benzyl)benzamide], the half-inhibitory concentration (IC50) on hMAO-A and on hMAO-B was more than 130 µM each time.
For `COCCOc1cc(Cl)c(C(=O)NCc2ccc(-c3cc[nH]c(=O)c3)cc2)c(Cl)c1` [(3), 2,6-dichloro-4-(2-methoxyethoxy)-N-(4-(2-oxo-1,2-dihydropyridin-4-yl)benzyl)benzamide], the 50% inhibitory concentration (IC50) at hMAO-A and at hMAO-B was more than 130 µM in each case.
With `Cc1cc(CNC(=O)c2c(Cl)cccc2Cl)ccc1-c1cc[nH]c(=O)c1` [(9), 2,6-dichloro-N-(3-methyl-4-(2-oxo-1,2-dihydropyridin-4-yl)benzyl)benzamide], the IC50 at hMAO-A and at hMAO-B was more than 130 µM in each case.
In the case of `O=C(NCc1ccc(-c2cc[nH]c(=O)c2)cc1)c1c(F)cccc1Cl` [(12), 2-chloro-6-fluoro-N-(4-(2-oxo-1,2-dihydropyridin-4-yl)benzyl)benzamide], the concentration for half-maximal inhibition (IC50) on hMAO-A and on hMAO-B was more than 130 µM each time.
With `Cc1cccc(C)c1C(=O)NCc1ccc(-c2cc[nH]c(=O)c2)cc1` [(6), 2,6-dimethyl-N-(4-(2-oxo-1,2-dihydropyridin-4-yl)benzyl)benzamide], the IC50 on hMAO-A and at hMAO-B was more than 130 µM throughout.
As for `Cc1cc(-c2ccc(CNC(=O)c3c(Cl)cccc3Cl)cc2)cc(=O)[nH]1` [(7), 2,6-dichloro-N-[4-(6-methyl-2-oxo-1,2-dihydro-pyridin-4-yl)-benzyl]-benzamide], the IC50 on hMAO-A and on hMAO-B was more than 130 µM in each case.
Regarding `O=C(NCc1ccc(-c2cc(=O)[nH]cc2F)cc1)c1c(Cl)cccc1Cl` [(14), 2,6-dichloro-N-(4-(5-fluoro-2-oxo-1,2-dihydropyridin-4-yl)benzyl)benzamide], the IC50 on hMAO-A and at hMAO-B was more than 130 µM each time.
As to `O=C(NCc1ccc(-c2ccn(COP(=O)(O)O)c(=O)c2)cc1)c1c(Cl)cccc1Cl` [compound (2), phosphoric acid mono-(4-{4-[(2,6-dichloro-benzoylamino)-methyl]-phenyl}-2-oxo-2H-pyridin-1-ylmethyl) ester], the 50% inhibitory concentration (IC50) is more than 10 µM on human ALDH-2 enzyme, more than 130 µM on hMAO-A and more than 130 µM at hMAO-B.
Take `Cn1ccc(-c2ccc(CNC(=O)c3c(Cl)cccc3Cl)cc2)cc1=O` [(10), 2,6-dichloro-N-(4-(1-methyl-2-oxo-1,2-dihydropyridin-4-yl)benzyl)benzamide]: the IC50 on hMAO-A and at hMAO-B was more than 130 µM throughout.
For `Cc1cccc(Cl)c1C(=O)NCc1ccc(-c2cc[nH]c(=O)c2)cc1` [(5), 2-chloro-6-methyl-N-(4-(2-oxo-1,2-dihydropyridin-4-yl)benzyl)benzamide], the half-inhibitory concentration (IC50) at hMAO-A and on hMAO-B was more than 130 µM each time.
